From patent publication US7863264B2, “Stabilised compositions having antibacterial activity” (Coloplast A/S, priority 2000, dated 2011)

Columns and labels:
[1] = UV light stability test (visual and CIE-Lab colour measurement); format: physicochemical; design: key to Dist. (distance in CIE-Lab colour space): Dist = √(ΔL²+Δa²+Δb²) in CIE-Lab, before vs after UV; conditions: for Visual evaluation of complexes after UV-irradiation: UV lamp 30 minutes, cut off approx. 280 nm; for L2 (CIE-Lab colour coordinate L) / b2 (CIE-Lab colour coordinate b) / a2 (CIE-Lab colour coordinate a): after 30 minutes UV irradiation; for L1 (CIE-Lab colour coordinate L) / a1 (CIE-Lab colour coordinate a) / b1 (CIE-Lab colour coordinate b): before irradiation; for Dist. (distance in CIE-Lab colour space): before vs after 30 minutes UV irradiation
Experimental: 1.5 g of complex was placed in a 50 mm Pyrex petri dish. This was covered with a 56 mm Pyrex lid with a UV-cut off at approx. 280 nm and placed 100 mm under a UV lamp (UVASPOT) 400/T 450W metal halide high pressure lamp, Dr. K. Hönle GmbH) for 30 minutes.
The colour was measured, with a Minolta CR300 colour measurement apparatus (CIE-Lab colour coordinates) before (1) and after (2) irradiation. Measurements were made approx. 1 mm above the complex. The distance in colour-space was calculated using the formula Dist=√{square root over (ΔL^2+Δa^2+Δb^2)}, where “L”, “a”, and “b” are the CIE-Lab Colour Coordinates Solubility for 1:1 Complexes:
Compounds according to the production in example 4 were assessed for stability against UV-light (wave length >280 nm). Milled powders were spread in a 1 mm thick layer in ordinary petri dishes and illuminated by the UV-light for 30 minutes.

[2] = Solubility for 1:1 complexes (silver by atomic absorption spectroscopy); conditions: Complex Ag:ligand 1:1; purified water
Experimental: The tube is placed on a vortex mixer for 1 h (1500 min^−1) and the tube is centrifuged (3000 min^−1/30 min). The water is decanted off and discarded, and another 10 ml purified water is added. This is repeated 2 times, and after the third centrifugation, the liquid decanted off is filtered (0.22 mm PVDF), preserved with nitric acid and the silver concentration is determined by atomic absorption spectroscopy after appropriate dilution.
Determination of solubility of complexes of silver with various ligands.

Molecule | Visual evaluation of complexes after UV-irradiation [1] | L2 (CIE-Lab colour coordinate L) [1] | b2 (CIE-Lab colour coordinate b) [1] | L1 (CIE-Lab colour coordinate L) [1] | a1 (CIE-Lab colour coordinate a) [1] | b1 (CIE-Lab colour coordinate b) [1] | Dist. (distance in CIE-Lab colour space) [1] | Solubility [2] | a2 (CIE-Lab colour coordinate a) [1] | discolouration of the product ([1]; complex made according to U.S. Pat. No. 2,336,131, UV test not meaningful)
Silver 5-methyl-5-isobutyl-hydantoinate [Ag/5-isobutyl-5-methyl-hydantoin] | White/no trace of discolouration | 92.65 | 1.74 | 92.4 | 0.03 | 0.42 | 1.36 | – | – | –
CC(=O)N1C(=O)[N-]C(=O)C1(C)C.[Ag+] [Ag/1-acetyl-5,5-dimethyl-hydantoin, Silver 1-acetyl-5,5-dimethyl-hydantoinate] | – | – | – | – | – | – | – | 1.100 mg Ag/l | – | –
O=C1CNC(=O)[N-]1.[Ag+] [Ag/hydantoin, Silver hydantoinate, reference compound] | Dark brown/heavily discoloured | 26.03 | 12.84 | 96.67 | 0.06 | 2.62 | 72.17 | – | 10.75 | –
Silver allantoinate [Ag-allantoin 1:1, reference compound] | Dark brown/heavily discoloured | 32.7 | 28.41 | 92.98 | – | 2.3 | 67.44 | – | 14.71 | discoloured extremely easily
Silver 5,5-diethyl-hydantoinate [Ag/5,5-diethyl-hydantoin] | White/no trace of discolouration | 94.05 | 2.03 | 96.76 | – | 0.67 | 3.05 | – | – | –
CC1(C)NC(=O)[N-]C1=O.[Ag+] [Ag/5,5-dimethyl-hydantoin, Silver 5,5-dimethyl-hydantoinate] | White/no trace of discolouration | 96.84 | 0.39 | 94.96 | – | 0.12 | 1.90 | – | – | –
